# Laboratory results as given in the supplement of paper PMC10307832.
# Assays:
# Assay in all cases: relative viability (nuclei count vs DMSO), 5 days (fraction); higher = more cells survive
# [1] = compound: C1=CC2=C(C=CC(=C2)C=C3C(=O)NC(=NCC4=CC=CS4)S3)N=C1 [RO-3306] + CC1(C)CCC(c2ccc(Cl)cc2)=C(CN2CCN(c3ccc(C(=O)NS(=O)(=O)c4ccc(N[C@H](CCN5CCOCC5)CSc5ccccc5)c(S(=O)(=O)C(F)(F)F)c4)cc3)CC2)C1 [Navitoclax] (partner 0.5 µM)
# How it was run: (§1)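 Lung cancer cell lines, seeded in 1536-well plates, were treated the following day by pin tool with a single drug or with five library-drug doses (not always all listed) in √10 steps on top of a fixed anchor-drug dose. Cells were fixed and nuclei stained in one step after 5 days, and nuclei were counted. Relative viability is the nuclei count for treated wells divided by that for vehicle wells, reported as medians of duplicate plates.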
# [2] = compound: O=S(=O)(c1ccccc1)N(CC(F)(F)F)c1ccc(C(O)(C(F)(F)F)C(F)(F)F)cc1 + N=C(N)NC(=N)NCCc1ccccc1 [Phenformin] (partner 250 µM)
# How it was run: as §1
# [3] = compound: C1=CC2=C(C=CC(=C2)C=C3C(=O)NC(=NCC4=CC=CS4)S3)N=C1 [RO-3306] + CS(=O)(=O)CCNCc1ccc(-c2ccc3ncnc(Nc4ccc(OCc5cccc(F)c5)c(Cl)c4)c3c2)o1 [Lapatinib] (partner 2 µM)
# How it was run: as §1
# [4] = compound: O=S(=O)(c1ccccc1)N(CC(F)(F)F)c1ccc(C(O)(C(F)(F)F)C(F)(F)F)cc1 + COc1cc2c(Oc3ccc(NC(=O)C4(C(=O)Nc5ccc(F)cc5)CC4)cc3F)ccnc2cc1OCCCN1CCOCC1 [Foretinib] (partner 0.25 µM)
# How it was run: as §1
# [5] = compound: O=S(=O)(c1ccccc1)N(CC(F)(F)F)c1ccc(C(O)(C(F)(F)F)C(F)(F)F)cc1 + CC(=O)Nc1cccc(-n2c(=O)n(C3CC3)c(=O)c3c(Nc4ccc(I)cc4F)n(C)c(=O)c(C)c32)c1 [Trametinib] (partner 0.02 µM)
# How it was run: as §1
Cell Line,relative viability ([1]; first compound 0.01 µM),relative viability ([1]; first compound 0.03162 µM),relative viability ([1]; first compound 0.1 µM),relative viability ([1]; first compound 0.3162 µM),relative viability ([1]; first compound 1 µM),relative viability ([2]; first compound 0.8 µM),relative viability ([2]; first compound 2.53 µM),relative viability ([2]; first compound 8 µM),relative viability ([3]; first compound 0.01 µM),relative viability ([3]; first compound 0.03162 µM),relative viability ([3]; first compound 0.1 µM),relative viability ([3]; first compound 0.3162 µM),relative viability ([3]; first compound 1 µM),relative viability ([4]; first compound 0.8 µM),relative viability ([4]; first compound 2.53 µM),relative viability ([4]; first compound 8 µM),relative viability ([5]; first compound 0.8 µM),relative viability ([5]; first compound 2.53 µM),relative viability ([5]; first compound 8 µM)
NCI-H2023,1.05,0.912,0.898,0.943,1.01,0.472,0.369,0.311,0.769,0.645,0.822,1.04,0.683,0.957,0.73,0.66,0.593,0.428,0.358
NCI-H2085,1.12,1.08,1.09,1.17,1.07,0.805,0.695,0.741,0.726,0.746,0.798,0.727,0.757,0.886,0.725,0.885,0.471,0.496,0.472
NCI-H2087,0.999,1.15,0.995,1.08,0.937,0.512,0.456,0.341,0.894,1.12,1.02,0.968,0.889,1.15,0.909,0.971,0.26,0.173,0.2
NCI-H2126,0.868,0.816,0.822,0.858,0.756,0.578,0.533,0.518,0.644,0.719,0.742,0.76,0.747,1.35,1.19,1.1,0.645,0.593,0.628
NCI-H2170,0.571,0.447,0.593,0.62,0.595,0.379,0.348,0.344,0.254,0.302,0.272,0.265,0.302,1.02,0.88,0.837,0.973,0.779,0.814
NCI-H2228,1.19,0.805,0.673,1.07,0.62,0.319,0.286,0.293,1.24,0.574,0.942,0.826,0.542,0.65,0.657,0.839,0.693,0.371,0.429
NCI-H2347,0.947,0.645,1.03,0.772,0.93,0.462,0.38,0.342,0.914,0.932,0.969,0.897,0.91,1.2,0.996,0.683,0.304,0.277,0.292
NCI-H2405,0.91,0.735,0.934,0.949,0.834,0.386,0.402,0.396,1.03,1.04,1.01,1.09,1.01,1.14,1.05,0.979,0.673,0.615,0.707
